The text below walks through data of patent US5773239A, “Mannosidase inhibitors, process for their preparation and their use as therapeutic agents” (Mount Sinai Hospital Corporation., priority 1995, dated 1998).

A value given as a limit tells only on which side of the number the result lay.

For data set [1], the target named is lysosomal mannosidase. The experiment in a line: Lysosomal mannosidase assay (pH 5.0). It is filed as biochemical. The note with it: para-nitrophenyl α-mannose. The procedure: The assay for rat liver Golgi α-mannosidase II contained 5 mM para-nitrophenylα-mannose, 40 mM sodium acetate pH 5.6, plus serially diluted test compouunds and mannosidase enzyme in a total volume of 50 ul, in 96 well plates. Plates were incubated 45 min at 37° C., then the reaction was stopped with 50 μl of 0.5M sodium carbonate. The absorbance of reaction products was read at 405 nm. The lysosomal mannosidase was done in the same procedure but with 40 mM sodium acetate buffer pH 5.0. The numbers in the table are IC50 values in μM for inhibition of mannosidase activity.

Data set [2] deals with T1, rat liver Golgi α-mannosidase II (Rattus norvegicus, UniProt P28494).
T1 construct: The assay for rat liver Golgi α-mannosidase II; from tissue; host or cells: rat liver (Golgi)
T1 sequence (P28494 1-1148): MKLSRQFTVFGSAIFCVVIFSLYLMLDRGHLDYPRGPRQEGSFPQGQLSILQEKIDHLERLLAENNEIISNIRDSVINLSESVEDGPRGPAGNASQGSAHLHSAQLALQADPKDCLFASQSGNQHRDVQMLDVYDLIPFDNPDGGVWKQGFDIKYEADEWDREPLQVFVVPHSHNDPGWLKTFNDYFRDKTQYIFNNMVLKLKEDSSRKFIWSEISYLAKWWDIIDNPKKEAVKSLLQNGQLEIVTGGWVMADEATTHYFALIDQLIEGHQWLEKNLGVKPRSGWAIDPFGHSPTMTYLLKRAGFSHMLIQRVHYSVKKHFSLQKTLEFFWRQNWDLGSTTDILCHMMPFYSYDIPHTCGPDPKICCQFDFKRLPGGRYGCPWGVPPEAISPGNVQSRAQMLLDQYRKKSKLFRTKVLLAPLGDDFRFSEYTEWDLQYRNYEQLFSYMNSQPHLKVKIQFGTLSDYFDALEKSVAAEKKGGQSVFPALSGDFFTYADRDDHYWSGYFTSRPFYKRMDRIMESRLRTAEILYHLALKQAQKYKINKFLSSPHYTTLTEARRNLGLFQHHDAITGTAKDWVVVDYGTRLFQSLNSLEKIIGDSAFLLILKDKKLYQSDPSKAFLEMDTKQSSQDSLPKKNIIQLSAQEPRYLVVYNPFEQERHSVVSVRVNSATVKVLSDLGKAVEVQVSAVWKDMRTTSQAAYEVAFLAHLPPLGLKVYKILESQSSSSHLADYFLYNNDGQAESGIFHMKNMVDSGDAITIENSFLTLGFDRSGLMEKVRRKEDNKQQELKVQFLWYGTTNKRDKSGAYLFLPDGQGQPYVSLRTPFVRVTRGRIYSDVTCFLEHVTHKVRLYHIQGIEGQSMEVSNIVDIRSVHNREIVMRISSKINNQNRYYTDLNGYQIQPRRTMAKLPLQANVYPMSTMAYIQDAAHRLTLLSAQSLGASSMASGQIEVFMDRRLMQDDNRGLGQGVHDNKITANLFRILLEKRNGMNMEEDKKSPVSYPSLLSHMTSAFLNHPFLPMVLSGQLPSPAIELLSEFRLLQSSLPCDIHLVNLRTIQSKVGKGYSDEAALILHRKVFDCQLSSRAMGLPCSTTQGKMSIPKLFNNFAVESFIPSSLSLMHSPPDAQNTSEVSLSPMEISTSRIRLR
The experiment in a line: Rat liver Golgi α-mannosidase II assay. It is filed as biochemical. The note with it: for IC50: para-nitrophenyl α-mannose, pH 5.6, read-out: IC50 ManII; for Ratio: ratio of lyso to ManII IC50 values. The procedure: The assay for rat liver Golgi α-mannosidase II contained 5 mM para-nitrophenylα-mannose, 40 mM sodium acetate pH 5.6, plus serially diluted test compouunds and mannosidase enzyme in a total volume of 50 ul, in 96 well plates. Plates were incubated 45 min at 37° C., then the reaction was stopped with 50 μl of 0.5M sodium carbonate. […] The lysosomal mannosidase was done in the same procedure but with 40 mM sodium acetate buffer pH 5.0. The numbers in the table are IC50 values in μM for inhibition of mannosidase activity.

Data set [3] has as its system MDAY-D2 tumor cells. The experiment in a line: L-PHA toxicity assay (inhibition of oligosaccharide processing in cells). It is filed as cell-based, mouse. The note with it: MDAY-D2 mouse lymphoma cells; read-out: IC50 for protection of cells from toxicity of LPHA lectin. The procedure: MDAY-D2 tumor cells were inoculated into 96 well micro-test plates at 2×10^4 cells/well, and containing serial dilutions of SW or SW analogues in MEM plus 10% FCS. The cells were cultured for 18-20 hr, followed by the addition of L-PHA at 25 μg/ml for an additional 24 hr. Cell proliferation was measured by adding 0.5 μCi/well of ^3 H-thymidine for 3-4 hr, harvesting onto glass fibre disks using a Titertek harvester and the disks were counted in a liquid scintillation counter. The apparent IC50 values for SW and the analogues are the drug concentrations showing 50% protection from L-PHA toxicity; that is 50% ^3 H-thymidine incorporated compared with cells grown in the absence of L-PHA. In experiments using the esterase inhibitor diethyl p-nitrophenyl phosphate, the compound was added to MDAY-D2 cells 4 hr prior to the α-mannosidase inhibitors and was present through-out the experiment.

Data set [4] in a line: Cellular toxicity / cell growth with compound alone (no L-PHA). It is filed as cell-based. The note with it: MDAY-D2 mouse lymphoma cells; read-out: Toxicity (cellular toxicity observed with compound alone).
Data set [5] relates to MDAY-D2 tumor cells. The note with it: no drug; cited from earlier work.

Compound `OC[C@@H]1[C@H](O)[C@H](O)CN1Cc1ccccc1` [GD002] displayed an IC50 in data set [1] of 217 µM. In data set [2], the “selectivity Mannosidase II versus lysosomal mannosidase” value was “favourable to Mannosidase II”, the IC50 was 19 µM and the Ratio is recorded as 11.42.

On to `CN1C[C@@H](O)[C@@H](O)[C@H]1CO` [GD003, N-methyl-DIL], for which the values for the IC50 in data set [1], in data set [3] and in data set [2] were 13.6 µM, 312 µM and 26.3 µM, respectively. In addition, the Concentration at which toxicity was seen with compound alone in data set [4] was greater than 5000 µM. Moreover, in data set [2], the Ratio was 0.517.

For `CCCCN1C[C@@H](O)[C@@H](O)[C@H]1CO` [GD004, N-butyl-DIL], the IC50 in data set [1] amounted to 25.5 µM; in data set [3] it was 625 µM; in data set [2] it was 50.9 µM. In data set [4], the Concentration at which toxicity was seen with compound alone is greater than 2500 µM. For the same compound, in data set [2], the Ratio was found to be 0.50.

In the case of `CCN1C[C@@H](O)[C@@H](O)[C@H]1CO` [GD005, N-ethyl-DIL], the values for the IC50 in data set [1], in data set [3] and in data set [2] were 14.3 µM, 312 µM and 33.9 µM, respectively. Also, in data set [4], the Concentration at which toxicity was seen with compound alone is greater than 5000 µM. The Ratio in data set [2] stood at 0.42.

As to `CCCN1C[C@@H](O)[C@@H](O)[C@H]1CO` [GD006, N-propyl-DIL], the results for the IC50 in data set [1], in data set [3] and in data set [2] were 19.2 µM, 156 µM and 22.1 µM, respectively. Moreover, the Concentration at which toxicity was seen with compound alone in data set [4] is greater than 2500 µM. Also, the Ratio in data set [2] turned out to be 0.87.

For the compound `OC[C@@H]1[C@H](O)[C@H](O)CN1CC1CC1` [GD008, N-cyclo-propyl-methyl-DIL], the IC50 in data set [1] came to 4.9 µM; in data set [3], 40 µM; in data set [2], 8.3 µM. The Concentration at which toxicity was seen with compound alone in data set [4] was greater than 2500 µM. Moreover, the Ratio in data set [2] is on record as 0.59.

`CC(O)C1[C@H](O)[C@H](O)CN1CC1CC1` (stereo partly drawn) [GD013] registered an IC50 in data set [1] of 193 µM. In addition, in data set [2], the IC50 came to 114 µM and the Ratio is on record as 1.69.

On to `CC(O)C1[C@H](O)[C@H](O)CN1CC1CCCCC1` (stereo partly drawn) [GD014], for which, in data set [1], 157 µM corresponded to half-maximal inhibition (IC50). In addition, in data set [2], the IC50 turned out to be 140 µM and the Ratio is recorded as 1.12.

As to “L-PHA: toxic plant lectin (leukoagglutinin) purchased from Pharmacia”, the “D50 for L-PHA toxicity” value in data set [5] is 5 µg/mL.
